“Also recorded” adds a separate entry of the source.
Columns and labels:
[1] = tested on: MDA-MB-231; assay: CellTiterGlo cell viability assay, MDA-MB-231; assay type: cell-based; conditions: Homo sapiens; MDA-MB-231, breast cancer, p53 R280K, 72 hours
Method: (§1) • 1) Cell lines: HT29, SW480, DLD-1, HCT116, and p53-null HCT116 cells, H1975, MDA-MD-231, U251, FaDu, CAL-27, PANC-1, Aspc-1, and MRC5 were obtained from the ATCC and cultured as recommended. Cells were regularly authenticated by bioluminescence, growth, and morphologic observation. The cells were routinely examined for Mycoplasma and all cell lines underwent STR authentication. • 2) Western blotting: After treatment, protein lysates were collected for Western blot analysis. 15 μg of protein was used for SDS-PAGE. After primary and secondary antibody incubations, the signal was detected by chemiluminescent detection kit, imaged by Syngene (Imgen Technologies). […] The cell viability was assessed by CellTiterGlo bioluminescent cell proliferation assay (Promega), following the manufacturer's protocol. Bioluminescence imaging was measured using the IVIS imager. Percentage of cell viability (mean±SEM) at each dose was calculated against the respective DMSO control. The IC50 values were determined from the sigmoidal dose-response curves using GraphPad Prims4. • 4) Caspase activity assay: Cells were seeded in 96-well plate (1×10^4 cells/well). […] The caspase 3/7 activity was assessed by Caspase-Glo® 3/7 Assay kit (Promega), following the manufacturer's protocol. Bioluminescence imaging was measured using the IVIS imager. […]

[2] = tested on: CCD 841 Con; assay: CellTiterGlo cell viability assay, CCD 841 Con normal colon cells; assay type: cell-based; conditions: Homo sapiens, non-transformed colorectal epithelial cells, p53 WT, 72 hours
Method: Cells were seeded in 96-well plates (6×10^3 cells/well). Cells were treated with different concentrations of compounds or dimethyl sulfoxide (DMSO) as a control for 72 hours. The cell viability was assessed by CellTiterGlo bioluminescent cell proliferation assay (Promega), following the manufacturer's protocol. Bioluminescence imaging was measured using the IVIS imager. Percentage of cell viability (mean±SEM) at each dose was calculated against the respective DMSO control. The IC50 values were determined from the sigmoidal dose-response curves using GraphPad Prism.

[3] = tested on: ASPC-1; assay: CellTiterGlo cell viability assay, ASPC-1; assay type: cell-based; conditions: Homo sapiens, ASPC1; ASPC-1, pancreatic cancer, p53 frameshift, 72 hours
Method: as §1

[4] = tested on: U251; assay: CellTiterGlo cell viability assay, U251; assay type: cell-based; conditions: Homo sapiens, U-251; U251, glioblastoma multiforme, p53 R273H, 72 hours
Method: as §1

[5] = tested on: PUMA and DR5 in HT29 and HCT116 p53−/− cell lines; assay: Western blot of PUMA and DR5, comparison with regorafenib; assay type: cell-based, human; conditions: 4 μM, 24-hour time point
Method: After treatment, protein lysates were collected for Western blot analysis. A total of […] of protein was used for SDS-PAGE. After primary and secondary antibody incubations, the signal was detected by a chemiluminescence detection kit, imaged by Syngene (Imgen Technologies). Antibodies for PUMA (for IHC), p53 (Santa Cruz Biotechnology), caspase 8, cleaved caspase 8, caspase 9, caspase 3, cleavage PARP, eIF2α, p-eIF2α (Ser51), CHOP, ATF4, DR5, FOXO3a, p-FOXO3a (Ser253), NF-κB p65, p-NF-κB p65 (Ser536), c-Jun, p-c-Jun (Ser63), JNK, p-JNK (Thr183/Tyr185), PUMA (for WB), c-Myc, phosphor-S62-cMyc (Cell Signaling Technology), Noxa, p21 (Calbiochem), p73 (Bethyl laboratories Inc), Ran (BD Biosciences), […] (Sigma).
Regorafenib is an FDA-approved drug for treatment of metastatic colorectal cancer, advanced gastrointestinal stromal tumors and hepatocellular carcinoma. Regorafenib inhibits ERK and leads to the induction of PUMA through the GSK3β/NF-κB axis and induces PUMA-mediated apoptosis in colon cancer cell lines (Chen et al., Clin Cancer Res, 2014, 20, 3472-3484). PG3-Oc was compared with regorafenib in the induction of PUMA and DR5. Regorafenib (40 μM and 24 hours treatment) was used as a control, as previously reported (Chen et al., Clin Cancer Res, 2014, 20, 3472-3484).

[6] = tested on: human cancer cells with mutant p53; assay: CellTiterGlo cell viability assay, panel of cancer cell lines; assay type: cell-based
Method: as §1

CCCCCCCCOC(=O)CCc1c(C)[nH]c(/C=C2\N=C(c3ccc[nH]3)C=C2OC)c1C [PG3-Oc, Octyl (Z)-3-(5-((4′-methoxy-1H,5′H-[2,2′-bipyrrol]-5′-ylidene)methyl)-2,4-dimethyl-1H-pyrrol-3-yl)propanoate]
IC50 [1]: 242 nM | IC50 [2]: 375 nM | IC50 [3]: 39.2 nM | IC50 [4]: 100 nM | level of PUMA and DR5 induced compared to 40 μM regorafenib [5]: much higher level of PUMA and DR5 | potency for inhibition of cancer cell growth ([6]; HCT116 and SW480, 72 hours, comparison with prodigiosin and obatoclax): comparable with prodigiosin (P) and obatoclax (Ob); also recorded: comparable to prodigiosin and obatoclax | IC50 values ([6]; panel of human cancer cell lines with mutant p53, 72 hours): within the nano-molar range
